Data taken from patent US5994357A, “Method of treatment for interstitial cystitis” (priority 1994, dated 1999).
Where a name gives a salt, the structure may show the parent alone.

Experiments:
[1] = cited from earlier work
[2] = cited from earlier work; remark: listed apart in the source
[3] = system: bladder mast cells; assay: Inhibition of neurohormonal activation of bladder mast cell secretion; format: cell-based; details: for inhibition of neurohormonal activation of bladder mast cell secretion (in words): found by the applicant
From the text: "Inhibitor of neurohormonal activation of mast cell secretion" refers to any substance or group of substances, devoid of any psychotropic effects which prevent the stimulation of mast cell secretion by hormones or molecules produced by nervous tissue. Whether or not a pharmacologically active substance is an inhibitor of neurohormonal activation of mast cell secretion can be determined by using the following procedure: Mast cells purified from peritoneal cavities of rats and stimulated by a neuropeptide, such as somatostatin (Theoharides, T. C. and Douglas, W. W. Endocrinology 102:1637-1640, 1978), or rat brain slices stimulated by substance P in special perfusion chambers (Dimitriadou, V., Buzzi, M. G., Moskowitz, M. A. and Theoharides, T. C. Neuroscience 44:27-39, 1991) or rat bladder mast cells stimulated by carbachol in special perfusion chambers (Theoharides, T. C. and Sant, G. R. Seminars Urology […], 1991) will first be […] with concentration of the agents to be tested ranging from 0.1 μmol/L-to-100 μmol/L of solution for varying amounts of time at 37° C. to determine their ability to inhibit subsequent mast cell secretion as described above.
These compounds can be tested by preincubating mast cells purified from the peritoneal cavity of rats with various concentrations of compound, typically 0.1 μmol/L to 1,000 μmol/L, for various times at 37° C. before stimulating mast ctll secretion with a stimulus such as somatostatin (Theoharides, T. C. and Douglas, W. W. Somatostatin induces histamine secretion from rat peritoneal mast cells. Endocrinology 102:1637-1640, 1978).
(§1) More appropriate to interstitial cystitis, bladder mast cells can be triggered to secrete in situ using slices of rodent bladders in perfusion chambers and measuring secreted chemicals (Theoharides, T. C. and Sant, G. R. Bladder mast cell activation in interstitial cystitis. Seminars Urology 9:74-87, 1991).

[4] = system: Rat Bladder Mast Cells; assay: ID20 for histamine release, inhibition of mast cell secretion by H-1 receptor antagonists in vitro (Table 5); format: cell-based; details: inhibitory dose causing 20% inhibition, read-out: ID20 for Histamine Release from Rat Bladder Mast Cells
From the text: "Inhibitor of neurohormonal activation of mast cell secretion" refers to any substance or group of substances, devoid of any psychotropic effects which prevent the stimulation of mast cell secretion by hormones or molecules produced by nervous tissue.
as §1

[5] = format: in vivo, human (female patients); details: for relief by previous treatment: six DMSO treatments and one heparin treatment
Procedure: They were administered a 75 mg oral dose of hydroxyzine pamoate per day. After 5 days the burning sensation upon voiding and sharp pelvic pain disappeared. In two months, the extreme tenderness from their chest area to pelvic area also disappeared. After about 10 to 12 weeks frequency was eliminated. […] Upon discontinuing administration of hydroxyzine pamoate symptoms reappeared within 24 hours or less. After one year of treatment, the subject takes 50 mg and 25 mg of hydroxyzine pamoate, respectively, on alternating days, with continued 100% success.
This person three was diagnosed with interstitial cystitis in March 1989. […] Their symptoms included constant burning in the bladder, pain at the connection of the buttocks with the upper legs and painful sexual intercourse. They could not sleep although their need to urinate was only about four times per night. Sitting on "blue ice" packs wrapped in a cloth provided some relief from the buttock pain and the burning.
This is person one who experienced increasing problems over the last 10 years until it became difficult to function as a nurse, parent and spouse. […] They had not received any treatment since February 1990 and was experienceing a flare up of symptoms when they tried hydroxyzine-HCl. […]

[6] = Anticholinergic and anxiolytic properties; details: decreasing frequency
[7] = system: neurons; assay: Inhibition of neuropeptide release from neurons stimulated by high K^+; format: cell-based
[8] = Example 2, patient three, since March 1991
[9] = Example 1, patient two, 75 mg oral per day
[10] = Example 2, patient three, 25 mg

CN(C)CCN(Cc1ccccc1)c1ccccn1 [pyribenzamine]
duration of the response ([1]; oral, 50 mg three times daily): variable | symptomatic improvement ([1]; oral, 50 mg three times daily): some symptomatic improvement

sodium pentosan polysulfate
duration ([2]; must be taken numerous times per day): short duration | amount of drug reaching the site of treatment ([2]; oral): only a small amount of the drug will reach the site of treatment | metabolism ([2]; oral): primarily liver-metabolized | replacement of the protective surface mucin ([1]; oral or intravesical administration): replace the protective surface mucin

CN1CCCC(n2nc(Cc3ccc(Cl)cc3)c3ccccc3c2=O)CC1 (stereo not drawn) [Azelastine]
inhibition of neurohormonal activation of bladder mast cell secretion (in words) [3]: inhibit neurohormonal activation of bladder mast cell secretion | IC20 [4]: 1 µM

C[S+](C)[O-] [DMSO, dimethylsulfoxide]
pulmonary excretion ([2]; intravesical): pulmonary excretion of a small percentage of the DMSO as dimethyl sulfide | side effects: bladder and urethra ([1]; intravesical): Bladder spasms and irritability may be experienced with DMSO treatment, as well as urethral burning during voiding | side effects: breath odor and taste ([1]; intravesical, most patients): garlic-like breath odor and a similar taste in their mouths | relief by previous treatment ([5]; Example 2, patient three): very limited relief | improvement by previous treatment ([5]; Example 3, patient one): fairly good improvement

OCCOCCN1CCN(C(c2ccccc2)c2ccc(Cl)cc2)CC1 (racemic) [hydroxyzine-HCl]
pain on sexual intercourse ([5]; Example 2, patient three): no longer associated with severe bladder pain | quality of life ([5]; Example 2, patient three): definitely improved the quality of their life | tolerance of offending foods ([5]; Example 2, patient three): they can eat some offending foods in small quantities | burning in the bladder [5, 8]: the burning has subsided significantly | buttock pain [5, 8]: the buttock pain is reduced | symptoms on attempted withdrawal of the drug ([5]; Example 3, patient one, 2 or 3 occasions): definite increase in interstitial cystitissymptoms | bladder comfort ([5]; Example 3, patient one, 25 to 50 mg daily): almost total bladder comfort | control of symptoms ([5]; Example 3, patient one, daily since May 1990): remarkable control of symptoms

heparin
relief by previous treatment ([5]; Example 2, patient three): very limited relief

O=C(O)COCCN1CCN(C(c2ccccc2)c2ccc(Cl)cc2)CC1 (stereo not drawn) [cetirizine]
inhibition of neurohormonal activation of bladder mast cell secretion (in words) [3]: inhibit neurohormonal activation of bladder mast cell secretion

OCCOCCN1CCN(C(c2ccccc2)c2ccc(Cl)cc2)CC1 (stereo not drawn) [Hydroxyzine]
inhibition of secretion from stimulated bladder mast cells (in words) ([3]; Table 3, unique characteristics): inhibits secretion from stimulated bladder mast cells | inhibition of neurohormonal activation of bladder mast cell secretion (in words) [3]: inhibit neurohormonal activation of bladder mast cell secretion | anticholinergic properties (in words) [6]: strong anticholinergic properties decreasing frequency | relief from frequency, dysuria, pain ([5]; 9 females, 25 mg twice - three times/day × 8 months, alternate 25 mg every other day past 8 months): 80-100% | Problems (side effects) ([5]; human, in vivo): Mild sedation, weakness × 1 week | IC20 [4]: 50 µM | inhibition of neuropeptide release from neurons (in words) [7]: inhibits neuropeptide release from neurons

CN1CCC(=C2c3ccccc3CCc3cccnc32)CC1 [Azatadine]
inhibition of neurohormonal activation of bladder mast cell secretion (in words) [3]: inhibit neurohormonal activation of bladder mast cell secretion | IC20 [4]: 1 µM

CN1CCC(=C2c3ccccc3CC(=O)c3sccc32)CC1 [Ketotifen]
inhibition of neurohormonal activation of bladder mast cell secretion (in words) [3]: inhibit neurohormonal activation of bladder mast cell secretion

OCCOCCN1CCN(C(c2ccccc2)c2ccc(Cl)cc2)CC1 (stereo not drawn) [hydroxyzine pamoate]
patient-reported state ([5]; Example 1, patient two): felt 100% normal | time to reappearance of symptoms upon discontinuing administration ([5]; Example 1, patient two): ≤ 24 h | time to disappearance of burning sensation upon voiding and sharp pelvic pain [5, 9]: 5 days | time to disappearance of extreme tenderness from chest area to pelvic area [5, 9]: two | continued success after one year of treatment ([5]; Example 1, patient two, 50 mg and 25 mg on alternating days): 100%

CN(C)CCC=C1c2ccccc2CCc2ccccc21 [amitriptyline]
side effects ([1]; human, in vivo): troublesome side effects such as hypotension, tachycardia, anxiety, or palpitations | success of previous treatment ([5]; Example 1, patient two, conventional methods and amitriptyline): limited success | effect of previous treatment on sleep [5, 10]: enabled them to sleep some | foods bringing symptoms on previous treatment [5, 10]: many foods still brought severe symptoms
